The text below walks through data of patent publication US10851108B2, “Substituted bicyclic heterocyclic compounds” (BRISTOL-MYERS SQUIBB COMPANY, priority 2016, dated 2020).

One data set has as its target hERG (Homo sapiens (Human), UniProt Q12809). In words: hERG Manual Patch Clamp Assay. The data set is classed as cell-based. Particulars: for inhibition at 1 µM / inhibition at 3 µM / inhibition at 10 µM: human, HEK 293 cells stably expressing hERG channels; for inhibition at 1 µM: pH 7.4, 1 μM, read-out: hERG EP IC50 (% Inhibition at 1 μM); for inhibition at 3 µM: pH 7.4, 3 uM, read-out: hERG EP % Inhibition at 3 uM; for inhibition at 10 µM: pH 7.4, 10 uM, read-out: hERG EP % Inhibition at 10 uM. Here is the method:
hERG Manual Patch Clamp Assay
hERG electrophysiology assay: The experimental compounds were assessed for hERG activity on HEK 293 cells stably expressing hERG channels using patch clamp technique. Coverslips plated with hERG expressing cells were placed in the experimental chamber and were perfused with a solution composed of (in mM): 140 NaCl, 4 KCl, 1.8 CaCl2, 1 MgCl2, 10 Glucose, 10 HEPES (pH 7.4, NaOH) at room temperature. Borosilicate patch pipettes had tip resistances of 2-4 Mohms when filled with an internal solution containing: 130 KCl, 1 MgCl2, 1 CaCl2, 10 EGTA, 10 HEPES, 5 ATP-K2 (pH 7.2, KOH). The cells were clamped at −80 mV in whole cell configuration using an Axopatch 200B (Axon instruments, Union City, Calif.) patch clamp amplifier controlled by pClamp (Axon instruments) software. Upon formation of a gigaseal, the following voltage protocol was repeatedly (0.05 Hz) applied to record tail currents: depolarization step from −80 mV to +20 mV for 2 seconds followed by a hyperpolarization step to −65 mV (3 seconds) to elicit tail currents. Compounds were applied after stabilization of tail current. First, tail currents were recorded in presence of extracellular solution alone (control) and subsequently, in extracellular solution containing increasing compound concentrations. Each compound concentration was applied for 2-5 minutes. The percentage inhibition at each concentration was calculated as reduction in peak tail current with respect to the peak tail current recorded in the presence of control solution. Data analysis was performed in a custom made template. The percent inhibitions at different concentrations were plotted to obtain a concentration response curve, which was subsequently fitted with a four parameter equation to calculate hERG IC50 value.
A lower hERG % Inhibition value indicates less inhibition of the hERG current
(In general: hERG is a cardiac potassium channel; its block is linked to QT prolongation.)

A further data set deals with hROMK (human Kir1.1) (Homo sapiens (Human), UniProt P48048). In words: Thallium Flux Assay. Particulars: CHO T-Rex hROMK stable cell line, 10-point concentration response; read-out: hROMK Th+ Flux IC50. In kind it is cell-based. The essentials: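 CHO T-Rex cells, doxycycline-induced (0.5 μg/ml) one day before, FluxOR dye-loaded; compounds 30 min, then Tl+ stimulus (final 3 mM Tl2SO4, 0.15 mM K2SO4) with ouabain in chloride-free buffer. Fluorescence 488/525 nm for 90 s; IC50 from 10-point curve; DMSO 0.5 or 1%.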
Chain of hROMK (human Kir1.1) (P48048 whole entry): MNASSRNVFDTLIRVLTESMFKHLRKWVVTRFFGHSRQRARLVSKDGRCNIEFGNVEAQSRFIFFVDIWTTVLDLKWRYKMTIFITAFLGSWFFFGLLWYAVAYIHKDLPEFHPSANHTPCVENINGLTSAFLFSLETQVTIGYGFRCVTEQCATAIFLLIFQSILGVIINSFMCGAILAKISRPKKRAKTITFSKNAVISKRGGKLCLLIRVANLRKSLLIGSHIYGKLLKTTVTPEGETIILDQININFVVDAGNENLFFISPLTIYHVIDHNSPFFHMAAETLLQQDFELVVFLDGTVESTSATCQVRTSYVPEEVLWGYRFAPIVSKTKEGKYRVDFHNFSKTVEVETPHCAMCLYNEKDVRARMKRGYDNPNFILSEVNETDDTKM

Chain of hERG (Q12809 whole entry): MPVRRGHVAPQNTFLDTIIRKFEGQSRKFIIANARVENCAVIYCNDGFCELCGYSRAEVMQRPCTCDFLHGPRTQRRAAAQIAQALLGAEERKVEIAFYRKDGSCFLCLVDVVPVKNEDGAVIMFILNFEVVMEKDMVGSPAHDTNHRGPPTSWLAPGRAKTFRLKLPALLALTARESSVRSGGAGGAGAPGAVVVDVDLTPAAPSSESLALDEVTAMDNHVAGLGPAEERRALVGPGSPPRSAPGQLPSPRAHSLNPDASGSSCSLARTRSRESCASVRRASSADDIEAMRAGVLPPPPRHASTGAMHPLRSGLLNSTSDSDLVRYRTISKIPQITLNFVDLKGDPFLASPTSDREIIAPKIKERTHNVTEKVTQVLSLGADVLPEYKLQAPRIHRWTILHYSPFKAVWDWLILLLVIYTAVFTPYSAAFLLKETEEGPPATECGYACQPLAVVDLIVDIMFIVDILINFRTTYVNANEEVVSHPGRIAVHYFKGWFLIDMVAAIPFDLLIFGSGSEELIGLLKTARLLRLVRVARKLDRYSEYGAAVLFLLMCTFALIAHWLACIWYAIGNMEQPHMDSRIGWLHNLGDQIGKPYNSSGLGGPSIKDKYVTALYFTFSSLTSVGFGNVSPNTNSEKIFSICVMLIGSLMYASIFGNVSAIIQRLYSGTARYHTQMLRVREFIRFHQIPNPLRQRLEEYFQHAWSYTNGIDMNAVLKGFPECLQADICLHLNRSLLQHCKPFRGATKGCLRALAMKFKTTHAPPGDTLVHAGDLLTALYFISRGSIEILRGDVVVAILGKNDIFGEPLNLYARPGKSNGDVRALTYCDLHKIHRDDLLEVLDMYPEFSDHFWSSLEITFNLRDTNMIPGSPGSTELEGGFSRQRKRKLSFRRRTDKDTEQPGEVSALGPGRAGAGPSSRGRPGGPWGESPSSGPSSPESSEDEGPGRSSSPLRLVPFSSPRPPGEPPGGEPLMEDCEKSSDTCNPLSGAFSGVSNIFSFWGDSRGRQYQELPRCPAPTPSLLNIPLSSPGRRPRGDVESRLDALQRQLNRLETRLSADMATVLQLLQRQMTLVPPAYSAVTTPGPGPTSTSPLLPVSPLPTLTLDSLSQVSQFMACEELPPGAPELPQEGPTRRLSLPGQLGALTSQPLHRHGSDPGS

Take `Cc1c(C(O)CN2CCc3nc(-n4ccc5c(C#N)cccc54)ncc3C2)ccc2c1COC2=O` (single isomer, unassigned) [Example 1-I, 1-(6-(2-hydroxy-2-(4-methyl-1-oxo-1,3-dihydroisobenzofuran-5-yl)ethyl)-5,6,7,8-tetrahydropyrido[4,3-d]pyrimidin-2-yl)-1H-indole-4-carbonitrile]: the inhibition at 1 µM on hERG was determined as 78%. In addition, the concentration for half-maximal inhibition (IC50) on hROMK (human Kir1.1) turned out to be 54 nM.

For `Cc1c(C(O)CN2CCc3nc(-n4cc(C#N)c5ccccc54)ncc3C2)ccc2c1COC2=O` (single isomer, unassigned) [Example 8-I, 1-(6-(2-hydroxy-2-(4-methyl-1-oxo-1,3-dihydroisobenzofuran-5-yl)ethyl)-5,6,7,8-tetrahydropyrido[4,3-d]pyrimidin-2-yl)-1H-indole-3-carbonitrile], the inhibition at 1 µM at hERG was 98%. For the same molecule, the IC50 at hROMK (human Kir1.1) stood at 28 nM.

Regarding `Cc1c(C(O)CN2CCc3nc(-n4ccc5cc(C#N)ccc54)ncc3C2)ccc2c1COC2=O` (single isomer, unassigned) [Example 16-I, 1-(6-(2-hydroxy-2-(4-methyl-1-oxo-1,3-dihydroisobenzofuran-5-yl)ethyl)-5,6,7,8-tetrahydropyrido[4,3-d]pyrimidin-2-yl)-1H-indole-5-carbonitrile], the inhibition at 1 µM on hERG was found to be 25%. Also, the IC50 at hROMK (human Kir1.1) worked out at 380 nM.

With `Cc1c(C(O)CN2CCc3nc(Nc4ccc(C#N)c(F)c4)ncc3C2)ccc2c1COC2=O` (single isomer, unassigned) [Example 28-I, 2-fluoro-4-((6-(2-hydroxy-2-(4-methyl-1-oxo-1,3-dihydroisobenzofuran-5-yl)ethyl)-5,6,7,8-tetrahydropyrido [4,3-d]pyrimidin-2-yl)amino)benzonitrile], the inhibition at 1 µM on hERG amounted to 91%. The IC50 on hROMK (human Kir1.1) was determined as 120 nM.

Take `Cc1c(C(O)CN2CCc3cc(Nc4ccc(C#N)c(F)c4)ccc3C2)ccc2c1COC2=O` (single isomer, unassigned) [Example 32-I, 2-fluoro-4-((2-(2-hydroxy-2-(4-methyl-1-oxo-1,3-dihydroisobenzofuran-5-yl)ethyl)-1,2,3,4-tetrahydroisoquinolin-6-yl)amino) benzonitrile]: the inhibition at 1 µM on hERG came out at 100%. Also, on hROMK (human Kir1.1), the IC50 is 50 nM.

As to `Cc1c(C(O)CN2CCc3cc(Nc4ccc(C#N)c(F)c4)ccc3C2)ccc2c1COC2=O` (single isomer, unassigned) [Example 32-II, 2-fluoro-4-((2-(2-hydroxy-2-(4-methyl-1-oxo-1,3-dihydroisobenzofuran-5-yl)ethyl)-1,2,3,4-tetrahydroisoquinolin-6-yl)amino) benzonitrile], the “hERG EP IC50 (% Inhibition at 1 μM)” value at hERG (1 μM, HEK 293 cells stably expressing hERG) worked out at 97% @1 μM. In addition, the IC50 on hROMK (human Kir1.1) was 83 nM.

`Cc1c(C(O)CN2CCc3nc(-n4ccc5ncccc54)ncc3C2)ccc2c1COC2=O` (single isomer, unassigned) [Example 36-I, 5-(2-(2-(1H-pyrrolo[3,2-b]pyridin-1-yl)-7,8-dihydropyrido[4,3-d]pyrimidin-6(5H)-yl)-1-hydroxyethyl)-4-methyl-isobenzofuran-1(3H)-one]: the inhibition at 1 µM at hERG came to 12%. Moreover, the IC50 at hROMK (human Kir1.1) was found to be 180 nM.

In the case of `Cc1c(C(O)CN2CCc3nc(-n4ncc5c(C#N)cncc54)ncc3C2)ccc2c1COC2=O` (single isomer, unassigned) [Example 43-I, 1-(6-(2-hydroxy-2-(4-methyl-1-oxo-1,3-dihydroisobenzofuran-5-yl)ethyl)-5,6,7,8-tetrahydropyrido[4,3-d]pyrimidin-2-yl)-1H-pyrazolo[3,4-c]pyridine-4-carbonitrile], the inhibition at 1 µM on hERG turned out to be 16%. Besides, the IC50 on hROMK (human Kir1.1) turned out to be 180 nM.

As to `Cc1c(C(O)CN2CCc3nc(Nc4cccnc4)ncc3C2)ccc2c1COC2=O` (single isomer, unassigned) [Example 54-I, 5-(1-hydroxy-2-(2-(pyridin-3-ylamino)-7,8-dihydropyrido[4,3-d]pyrimidin-6(5H)-yl)ethyl)-4-methylisobenzofuran-1(3H)-one], the inhibition at 1 µM at hERG was 32%. The IC50 on hROMK (human Kir1.1) turned out to be 217 nM.

Consider `Cc1c(C(O)CN2CCc3nc(-n4ccnc4C)ncc3C2)ccc2c1COC2=O` (single isomer, unassigned) [Example 59-I, 5-(1-hydroxy-2-(2-(2-methyl-1H-imidazol-1-yl)-7,8-dihydropyrido[4,3-d]pyrimidin-6(5H)-yl)ethyl)-4-methyl isobenzofuran-1(3H)-one], for which, on hERG, the inhibition at 1 µM is 13%, the inhibition at 3 µM is 27% and the inhibition at 10 µM is 51%. In addition, the IC50 at hROMK (human Kir1.1) was found to be 224 nM.

As for `Cc1c(C(O)CN2CCc3nc(-n4nc(C#N)c5ccccc54)ncc3C2)ccc2c1COC2=O` (single isomer, unassigned) [Example 60-I, 1-(6-(2-hydroxy-2-(4-methyl-1-oxo-1,3-dihydroisobenzofuran-5-yl)ethyl)-5,6,7,8-tetrahydropyrido[4,3-d]pyrimidin-2-yl)-1H-indazole-3-carbonitrile], on hERG, the inhibition at 1 µM was 92%. Further, the half-inhibitory concentration (IC50) at hROMK (human Kir1.1) is 30 nM.

For the molecule `Cc1c(C(O)CN2CCc3nc(N4CCc5c(C#N)cccc54)ncc3C2)ccc2c1COC2=O` (single isomer, unassigned) [Example 65-I, 1-(6-(2-hydroxy-2-(4-methyl-1-oxo-1,3-dihydroisobenzofuran-5-yl)ethyl)-5,6,7,8-tetrahydropyrido[4,3-d]pyrimidin-2-yl)indoline-4-carbonitrile], on hERG, the inhibition at 1 µM was 56%. Moreover, the IC50 at hROMK (human Kir1.1) worked out at 31 nM.

Turning to `Cc1c(C(O)CN2CCc3nc(-n4ccnc4)ncc3C2)ccc2c1COC2=O` (single isomer, unassigned) [Example 66-I, 5-(2-(2-(1H-imidazol-1-yl)-7,8-dihydro-pyrido[4,3-d]pyrimidin-6(5H)-yl)-1-hydroxyethyl)-4-methylisobenzofuran-1(3H)-one], at hERG, the inhibition at 1 µM is 6%, the inhibition at 3 µM was found to be 14% and the inhibition at 10 µM was 30%. Besides, the IC50 on hROMK (human Kir1.1) is 362 nM.

For the molecule `Cn1c(=O)oc2ccc(CN3CCc4cc(Nc5ccc(C#N)c(F)c5)ccc4C3)cc21` [Example 48, 2-fluoro-4-((2-((3-methyl-2-oxo-2,3-dihydrobenzo[d]oxazol-5-yl)methyl)-1,2,3,4-tetrahydroisoquinolin-6-yl)amino)benzonitrile], the IC50 on hROMK (human Kir1.1) came out at 600 nM.

With `Cc1c(CN2CCc3nc(Nc4ccc5oc(=O)n(C)c5c4)ncc3C2)ccc2c1COC2=O` [Example 49, 3-methyl-5-((6-((4-methyl-1-oxo-1,3-dihydroisobenzofuran-5-yl)methyl)-5,6,7,8-tetrahydropyrido[4,3-d]pyrimidin-2-yl)amino) benzo[d]oxazol-2(3H)-one], the IC50 on hROMK (human Kir1.1) was found to be 1800 nM.

As to `Cc1c(CN2Cc3cnc(Nc4ccc(C#N)c(F)c4)nc3CC2CO)ccc2c1COC2=O` (stereo not drawn) [Example 57-II, 2-fluoro-4-((7-(hydroxymethyl)-6-((4-methyl-1-oxo-1,3-dihydroisobenzo-furan-5-yl)methyl)-5,6,7,8-tetrahydro-pyrido[4,3-d]pyrimidin-2-yl)amino) benzonitrile], the IC50 on hROMK (human Kir1.1) was found to be 679 nM.

A word on the inhibition: it is how much of the control response was suppressed. What is called IC50 is the concentration needed to halve the response being measured.
